Consider one compound from PMC5108082, “Pharmacokinetics, toxicity, and cytochrome P450 modulatory activity of plumbagin” (BMC Pharmacology & Toxicology, 2016).

As a reminder, the LD50 is the dose expected to kill half of the subjects tested. A word on the IC50: it is the concentration needed to halve the response being measured.

The nature of data set [1]: acute toxicity test, single oral dose. The format is in vivo, rat. The settings on record: both sexes, Wistar, rat, in vivo, rats, single oral dose. On the procedure: (§1) Plumbagin was dissolved with 20 % Tween-80 to obtain the desired concentrations. Wistar rats were fasting 2 h before administration of a single oral dose of the plumbagin. Animals were divided into eight groups of six (3 males and 3 females for each group). For the acute toxicity test, rats in each group were fed with plumbagin at a single oral dose of 500, 250, or 150 mg/kg body weight (1 mL); control group received a single oral dose of 20 % Tween-80 (1 mL). For the subacute toxicity test, rats in each group were fed with plumbagin at a daily dose of 100, 50, or 25 mg/kg body weight (1 mL) for 28 days; control group received a daily oral dose of 20 % Tween-80 for 28 days (1 mL).
(§2) General behavioral changes of each rat was observed continuously for 1 h after each dose, intermittently every 4 h, and thereafter over a period of 24 h. […] At the end of the observation period, all animals were sacrificed under ether anesthesia (isoflurane) and vital organs (liver, lung, kidney, heart, and spleen) were removed from all animals for gross and histopathological examination. Blood sample was collected from each rat through cardiac puncture for analysis of plasma chemistry (heparin as an anticoagulant) and blood hematology (EDTA as an anticoagulant).

The next data set deals with Wistar rats. The data set can be described thus: acute toxicity test, single oral dose. It counts as in vivo, rat. As to the method: as §1, §2
The next data set concerns CYP3A11. As to conditions: mouse, in vivo, po. As to the method: Mice were divided into four groups (3 male mice each). Mice in the treated groups were fed with plumbagin at a daily oral dose of 25, 12.5, or 6.25 mg/kg body weight (1 mL) for 28 days. The control group received a daily oral dose (1 mL) of 20 % Tween-80 for 28 days. At the end of the experiment period, all animals were sacrificed under ether anesthesia and livers were removed for investigation of the modulatory effect of plumbagin on hepatic CYP1A2 and CYP3A11.
The liver samples were rinsed with ice-cold, 0.9 %NaCl, homogenized in 50 mM sodium phosphate buffer (pH 7.4) containing 0.1 mM EDTA, and centrifuged at 9000 × g for 20 min. […] Protein concentrations were determined by Bradford protein assay and the suspended microsomes were aliquoted and stored at −80 °C until use. […]
The incubation mixture of 500 μL containing the selective substrate (20 μM phenacetin and 40 μm nifedipine for CYP1A2 and CYP3A11, respectively), mice liver microsomes (in 100 mM phosphate buffer pH 7.4) was pre-incubated at 37 °C for 5 min in a shaking water bath. […] Concentrations of paracetamol (metabolite of CYP1A2) and oxidized nifedipine (metabolite of CYP3A11) in the incubation mixtures were determined using HPLC with UV detection. […]

For data set [2], the system named is K1 chloroquine-resistant P. falciparum. The settings on record: K1 clone; read-out: median IC50; cited from earlier work.
A further data set has as its system CYP2C19. As to conditions: cited from earlier work.
In data set [3] the test system is platelet adhesion and coagulation. As to conditions: rats, daily doses of 2 mg/kg body weight; plumbagin as a component of Plumbago zeylanica; cited from earlier work.
[4] abbreviates: single oral dose 150 mg/kg body weight, 14 days observation.

SMILES strings stand for the structures.

For the compound `CC1=CC(=O)c2c(O)cccc2C1=O` [plumbagin, 5-hydroxy-2-methyl-1,4-naphthoquinone], the LD50 at 14 days in data set [1] (read-out: 50 % lethal dose (LD50), acute toxicity) was determined as 250 mg/kg. Moreover, the MTD at 14 days in data set [1] (read-out: maximum tolerated dose, acute toxicity) worked out at 150 mg/kg. For the same compound, the gender-specific toxicity result with Wistar rats (all dose levels) is reported as “No gender-specific toxicity was observed”. For the same compound, the “histopathological examination (liver, kidney, heart, spleen, lung)” value in the data set on Wistar rats (all dose levels (150, 250, 500 mg/kg)) was “no significant change in size and morphology”. Moreover, the “signs of toxicity, water and food consumption, body weight” value with Wistar rats (setting [4]) is recorded as “no visible sign of toxicity”. Also, the survival entry in the data set with Wistar rats (setting [4]) is “All rats survived”. For the same compound, the animals died in the data set with Wistar rats (single oral dose 250 mg/kg body weight) is given as 3/6; in the data set with Wistar rats (single oral dose 500 mg/kg body weight), 6/6. In addition, the signs of toxicity result in the data set on Wistar rats (single oral dose 250 and 500 mg/kg body weight) was “toxic signs and symptoms including anxiety, salivation, exhibited chewing, and agitation”. Besides, the “trend of CYP3A11 mRNA expression and enzyme activity” value in the data set on CYP3A11 is on record as “a trend of reduction”. For the same compound, the values for the IC50 (in data set [2]; in the data set on CYP2C19) were 370 nM and 780 nM, respectively. Further, the “platelet adhesion and coagulation” value in data set [3] was “significantly decreased”.
